Laboratory results reported in US11571567B2, “Iontophoresis device for drug delivery and method for manufacturing the same” (BIOSENSOR LABORATORIES INC., priority 2016, dated 2023).

Experiment: Drug delivery effect of the RED iontophoresis device through excised hairless mouse back skin (HPLC/LC-MS of stratum corneum and dermis)
Assay type: in vitro ADME
Conditions: after 3 hours, FIG. 10
Protocol: FIG. 10 is a graph illustrating drug delivery effects of the iontophoresis device according to an embodiment. In order to confirm the drug delivery effects, the RED battery unit was prepared in the same manner as in preparation of the RED battery unit prepared for the measurement in FIG. 6, except that the number of chamber layers was 15, and a size of the chamber was 1 cm×0.8 cm. Also, 3M clectrically conductible adhesive tape (ECAT), which is conductive fabric, was used as an intermediate unit. The first material containing unit was prepared as follows. 2.5 wt % of 2-phospho I-ascorbic acid trisodium (VCP) (available from Sigma Aldrich, US) and 3 w/v % of Carbopol 940 were dissolved in 1×PBS having pH of 7.4. By titrating with 1 M HCl and 1 M NaOH, a pH of the first material containing unit including vitamin C (VCP) was adjusted to 7. This is a stable pH at which VCP exists in the ionized form. As a thickening agent used in preparation of a dosage form, Carbopol was prepared as a sol while controlling a pH using pH indicator paper (available from GE healthcare, UK). The resultant was sufficiently stirred by using a glass rod so that a material in the first material containing unit was homogenous after each titration process. […]

- vitamin C (VCP) delivered to the skin, i.e., dermis (experimental group (RED single): activated iontophoresis device, 15 chamber layers, 2.5 wt % VCP in Carbopol sol pH 7, excised haireless mouse (Sk-hr 1) back skin): about 40%
Compound: O=C1O[C@H]([C@@H](O)CO)C(O)=C1OP(=O)(O)O.[Na+].[Na+].[Na+] [VCP, 2-phospho I-ascorbic acid trisodium]
- drug remaining amount in the stratum corneum (control group (Ctrl): device with the same drug concentration, not activated by water, excised haireless mouse back skin): more drug remaining amount was found in the stratum corneum
